Among the data in PubChem BioAssay AID328 (DTP/NCI, 2004) are T/C values, retold here.

The assay concerns BDF1 mice, P388 leukemia ip, median survival T/C. The assay is described as follows: NCI In Vivo Anticancer Drug Screen. Data for tumor model P388 Leukemia (intraperitoneal) in B6D2F1 (BDF1) mice. To be noted: endpoint: median survival time, higher = longer survival. In a few lines: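 Read-out is survival of treated animals expressed relative to the vehicle group, as a T/C ratio.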

[1] abbreviates: dose: 25.0 mg/kg/injection, schedule: Q04DX003 (ip), vehicle: saline.
Setting [2] is: dose: 50.0 mg/kg/injection, schedule: Q04DX003 (ip), vehicle: saline.
The mark [3] stands for this setting: dose: 100.0 mg/kg/injection, schedule: Q04DX003 (ip), vehicle: saline.
The mark [4] stands for this setting: dose: 200.0 mg/kg/injection, schedule: Q04DX003 (ip), vehicle: saline.
[5] abbreviates: dose: 50.0 mg/kg/injection, schedule: Q01DX009 (ip), vehicle: Klucel (hydroxypropylcellulose) (HPC).
The mark [6] stands for this setting: dose: 100.0 mg/kg/injection, schedule: Q01DX009 (ip), vehicle: Klucel (hydroxypropylcellulose) (HPC).
[7] abbreviates: dose: 50.0 mg/kg/injection, schedule: Q01DX009 (ip), vehicle: saline.
[8] abbreviates: dose: 100.0 mg/kg/injection, schedule: Q01DX009 (ip), vehicle: saline.
The mark [9] stands for this setting: dose: 200.0 mg/kg/injection, schedule: Q01DX009 (ip), vehicle: saline.
The mark [10] stands for this setting: dose: 25.0 mg/kg/injection, schedule: Q01DX009 (ip), vehicle: saline with Tween-80.
[11] abbreviates: dose: 50.0 mg/kg/injection, schedule: Q01DX009 (ip), vehicle: saline with Tween-80.
[12] abbreviates: dose: 100.0 mg/kg/injection, schedule: Q01DX009 (ip), vehicle: saline with Tween-80.
Setting [13] is: dose: 200.0 mg/kg/injection, schedule: Q01DX009 (ip), vehicle: saline with Tween-80.
Where [14] appears, read: dose: 25.0 mg/kg/injection, schedule: Q01DX009 (ip), vehicle: saline.
The mark [15] stands for this setting: dose: 200.0 mg/kg/injection, schedule: Q01DX009 (ip), vehicle: Klucel (hydroxypropylcellulose) (HPC).

Structures are written as SMILES. Where “and” joins values, the source holds several entries; their conditions need not be identical. Equal entries are not always repeated. Toxic doses and inconclusive results are not listed.

With `OCC1OC(n2ccc3c2ncn2ccnc32)C(O)C1O` (centres undefined), the T/C is 110 % of control under setting [1], 102 % of control under setting [2], 96 % of control under setting [3] and 102 % of control under setting [4].
On to `O=C(O)CCCCc1ccc(CCCCC(=O)O)cc1`, for which the T/C is 104 % of control (dose: 25.0 mg/kg/injection, schedule: Q01DX009 (ip), vehicle: Klucel (hydroxypropylcellulose) (HPC)); 104 % of control under setting [5]; 90 % of control under setting [6]; 120 % of control (dose: 150.0 mg/kg/injection, schedule: Q04DX003 (ip), vehicle: Klucel (hydroxypropylcellulose) (HPC)).
Turning to `O=C1C=CC(=O)N1Cc1ccco1`, the T/C reads like this: under setting [7], 100 % of control; under setting [8], 91 % of control and 95 % of control; under setting [9], 100 % of control; (dose: 400.0 mg/kg/injection, schedule: Q01DX009 (ip), vehicle: saline) 91 % of control.
With `O=C(/C=C/c1ccccc1)c1ccc2c(c1)OCO2`, the T/C reads like this: (dose: 50.0 mg/kg/injection, schedule: Q01DX009 (ip), vehicle: water) 99 % of control; (dose: 50.0 mg/kg/injection, schedule: Q04DX003 (ip), vehicle: water) 99 % of control; (dose: 100.0 mg/kg/injection, schedule: Q01DX009 (ip), vehicle: water) 108 % of control; (dose: 100.0 mg/kg/injection, schedule: Q04DX003 (ip), vehicle: water) 94 % of control; (dose: 200.0 mg/kg/injection, schedule: Q01DX009 (ip), vehicle: water) 101 % of control; (dose: 200.0 mg/kg/injection, schedule: Q04DX003 (ip), vehicle: water) 103 % of control. In addition, the T/C (dose: 400.0 mg/kg/injection, schedule: Q01DX009 (ip), vehicle: water) is 108 % of control and the T/C (dose: 400.0 mg/kg/injection, schedule: Q04DX003 (ip), vehicle: water) was 94 % of control.
Consider `CC1=C(CO)C(=O)O[C@@H]([C@@H](C)[C@H]2CC[C@H]3[C@@H]4C[C@H]5O[C@]56[C@@H](O)C=CC(=O)[C@]6(C)[C@H]4CC[C@]23C)C1`, for which the T/C runs as follows: (dose: 5.0 mg/kg/injection, schedule: Q01DX010 (ip), vehicle: steriod suspending solution) 95 % of control; (dose: 10.0 mg/kg/injection, schedule: Q01DX010 (ip), vehicle: steriod suspending solution) 100 % of control; (dose: 20.0 mg/kg/injection, schedule: Q01DX010 (ip), vehicle: steriod suspending solution) 90 % of control; (dose: 40.0 mg/kg/injection, schedule: Q01DX010 (ip), vehicle: steriod suspending solution) 104 % of control.
Turning to `O=c1nc(Oc2ccccc2)nc2c3ccccc3ccn12`, the T/C is, setting by setting: (dose: 12.5 mg/kg/injection, schedule: Q01DX009 (ip), vehicle: saline with Tween-80) 118 % of control; under setting [10], 102 % of control; under setting [11], 112 % of control; under setting [12], 114 % of control and 119 % of control; under setting [13], 89 % of control.
Take `S=P(N1CCCCCC1)(N1CC1)N1CC1`: the T/C is 154 % of control (dose: 16.5 mg/kg/injection, schedule: Q01DX009 (ip), vehicle: saline); 195 % of control under setting [14]; 122 % of control (dose: 37.5 mg/kg/injection, schedule: Q01DX009 (ip), vehicle: saline).
For `FC(F)(F)c1cc(NC(=S)N2c3ccccc3-n3cccc3C2c2cccnc2)cc(C(F)(F)F)c1` (centres undefined), the T/C reads like this: under setting [5], 97 % of control; under setting [6], 89 % of control; under setting [15], 91 % of control.
Take `Cc1c(C)c2ccc(N)cc2[nH]c1=O`: the T/C runs as follows: (dose: 2.0 mg/kg/injection, schedule: Q01DX009 (ip), vehicle: saline) 118 % of control; (dose: 4.0 mg/kg/injection, schedule: Q01DX009 (ip), vehicle: saline) 105 % of control; (dose: 8.0 mg/kg/injection, schedule: Q01DX009 (ip), vehicle: saline) 99 % of control; (dose: 16.0 mg/kg/injection, schedule: Q01DX009 (ip), vehicle: saline) 118 % of control; under setting [1], 98 % of control; under setting [2], 106 % of control. Besides, the T/C by setting is: under setting [3], 106 % of control; under setting [4], 104 % of control; (dose: 400.0 mg/kg/injection, schedule: Q04DX003 (ip), vehicle: saline) 107 % of control.
For `CCOC(CN=Cc1ccc(Cl)c(Cl)c1)OCC`, the T/C (dose: 100.0 mg/kg/injection, schedule: Q01DX001 (ip), vehicle: Klucel (hydroxypropylcellulose) (HPC)) is 100 % of control; the T/C (dose: 200.0 mg/kg/injection, schedule: Q01DX001 (ip), vehicle: Klucel (hydroxypropylcellulose) (HPC)) is 100 % of control; the T/C (dose: 400.0 mg/kg/injection, schedule: Q01DX001 (ip), vehicle: Klucel (hydroxypropylcellulose) (HPC)) is 95 % of control.
Regarding `O=C1NC(c2ccc3ccccc3n2)Nc2ccccc21` (centres undefined), the T/C was 105 % of control under setting [6]; 100 % of control under setting [15]; 110 % of control (dose: 400.0 mg/kg/injection, schedule: Q01DX009 (ip), vehicle: Klucel (hydroxypropylcellulose) (HPC)).
As to `Nc1cc(N)cc(Cc2ccccc2)c1`, the T/C is, setting by setting: under setting [5], 112 % of control; under setting [6], 116 % of control; under setting [15], 116 % of control.
For the compound `CC1(c2cccs2)NC(=O)N(Cl)C1=O` (centres undefined), the T/C was 97 % of control under setting [10]; 94 % of control (dose: 25.0 mg/kg/injection, schedule: Q04DX003 (ip), vehicle: saline with Tween-80); 97 % of control under setting [11]; 102 % of control (dose: 50.0 mg/kg/injection, schedule: Q04DX003 (ip), vehicle: saline with Tween-80); 108 % of control under setting [12]; 104 % of control and 107 % of control (dose: 100.0 mg/kg/injection, schedule: Q04DX003 (ip), vehicle: saline with Tween-80). For the same compound, the T/C under setting [13] was 108 % of control; the T/C (dose: 200.0 mg/kg/injection, schedule: Q04DX003 (ip), vehicle: saline with Tween-80) is 109 % of control; the T/C (dose: 400.0 mg/kg/injection, schedule: Q04DX003 (ip), vehicle: saline with Tween-80) was 107 % of control.
In the case of `CC[N+](C)(C)c1ncnc2nc[nH]c12`, the T/C was 91 % of control under setting [14]; 95 % of control under setting [7]; 87 % of control and 91 % of control under setting [8]; 104 % of control under setting [3]; 95 % of control under setting [9]; 104 % of control under setting [4].
Consider `[Cl][Pt+2][Cl].[NH-]C1CCCC1.[NH-]C1CCCC1`, for which the T/C (dose: 10.0 mg/kg/injection, schedule: Q01DX009 (ip), vehicle: Klucel (hydroxypropylcellulose) (HPC)) was 96 % of control; the T/C (dose: 20.0 mg/kg/injection, schedule: Q01DX009 (ip), vehicle: Klucel (hydroxypropylcellulose) (HPC)) was 107 % of control; the T/C (dose: 40.0 mg/kg/injection, schedule: Q01DX009 (ip), vehicle: Klucel (hydroxypropylcellulose) (HPC)) was 112 % of control; the T/C (dose: 80.0 mg/kg/injection, schedule: Q01DX009 (ip), vehicle: Klucel (hydroxypropylcellulose) (HPC)) was 117 % of control.
Take `CCCCCCCCCCCCCC[S+](C)C`: the T/C reads like this: (dose: 12.5 mg/kg/injection, schedule: Q01DX009 (ip), vehicle: saline) 118 % of control; under setting [14], 100 % of control; under setting [1], 100 % of control; under setting [2], 104 % of control.
With `COc1cc2oc3ccccc3c(=O)c2cc1CSc1ccccc1N`, the T/C was 123 % of control under setting [11], 88 % of control under setting [12] and 90 % of control under setting [13].
